The results in this text go back to patent US20120101099A1, “HISTONE DEACETYLASE INHIBITORS” (ANTHEM BIOSCIENCES PRIVATE LIMITED, priority 2009, published 2012).

Structures can show the parent of a compound that is named as a salt. Where two headings read alike, the source gives them in different places. Bounds are passed on as bounds.

For data set [1], the system named is A549. Description: Cell proliferation assay (MTT). As to conditions: Homo sapiens. The data set is classed as cell-based. The method, then:
(§1) Cells were seeded in a 96-well cell culture plates at a concentration of 10,000 cells per well and incubated at 37° C. in CO2 incubator.
(§2) Twenty-four hours later cells were treated with different concentrations (100, 10, 1, 0.1, and 0.01 μM) of compound dissolved in DMSO and incubated for 48 hours. For To measurement, 24 hours after seeding the cells, 20 μL of 3-(4.5-dimethyl-2- thiazolyl)-2,5-diphenyl-2H-tetrazolium (MTT) solution per well was added to the T0 plate and incubated for 3 hours at 37° C. in a CO2 incubator.
(§3) The plate containing cells and test compounds was treated similarly after 48 hours of incubation. After 3 hours of MTT addition, well contents were aspirated carefully followed by addition of 100 μL DMSO per well. Plates were agitated to ensure dissolution of the formazan crystals in DMSO and absorbance was read at 570 nm (A570). […] From the percentage growths a dose response curve was generated and GI50 values were interpolated from the growth curves.

The subject of data set [2] is HT-29. The experiment in a line: Cell proliferation assay (MTT). The data set is classed as cell-based. The settings on record: Homo sapiens. How it is done: as §1, §2, §3
Data set [3] deals with PC-3. The experiment in a line: Cell proliferation assay (MTT). As to conditions: Homo sapiens. The class given is cell-based. How it is done:
as §1, §2, §3

Data set [4] in a line: Metabolic stability in mouse liver microsomes. The class given is in vitro ADME. The settings on record: 100 μM, 37° C. How it is done:
The objective of the study is to determine the metabolic stability of the compounds in mouse liver microsomes. Brief procedure: metabolic stability of test compounds were carried out using mouse liver microsomes. The final composition of the assay includes test compound 100 μM (dissolved in DMSO), mouse microsomal protein 0.5 mg/mL and cofactors (G-6-P 5.0 mM, G-6-PDH 0.06 U, MgCl2 2.0 mM, NADP+1.0 mM, UDPGA 0.5 mM, PAPS 0.6 mM and GSH 1 mM). The test compounds were incubated at with mouse liver microsomes with cofactors. After 1 h incubation at 37° C., the reaction was stopped by addition of stop solution (ice cold acetonitrile). The samples were centrifuged and supernatants were analysed using LC/MS/MS. The Percent of parent test compounds remaining after 1 h of incubation time was calculated with respect to the peak areas of at time 0.
(In general: Liver microsomes are a subcellular fraction often used to study metabolism.)

Data set [5] addresses T1, CYP 1A2 (Homo sapiens, UniProt P05177).
T1 construct: purchased
T1 sequence (P05177 1-516): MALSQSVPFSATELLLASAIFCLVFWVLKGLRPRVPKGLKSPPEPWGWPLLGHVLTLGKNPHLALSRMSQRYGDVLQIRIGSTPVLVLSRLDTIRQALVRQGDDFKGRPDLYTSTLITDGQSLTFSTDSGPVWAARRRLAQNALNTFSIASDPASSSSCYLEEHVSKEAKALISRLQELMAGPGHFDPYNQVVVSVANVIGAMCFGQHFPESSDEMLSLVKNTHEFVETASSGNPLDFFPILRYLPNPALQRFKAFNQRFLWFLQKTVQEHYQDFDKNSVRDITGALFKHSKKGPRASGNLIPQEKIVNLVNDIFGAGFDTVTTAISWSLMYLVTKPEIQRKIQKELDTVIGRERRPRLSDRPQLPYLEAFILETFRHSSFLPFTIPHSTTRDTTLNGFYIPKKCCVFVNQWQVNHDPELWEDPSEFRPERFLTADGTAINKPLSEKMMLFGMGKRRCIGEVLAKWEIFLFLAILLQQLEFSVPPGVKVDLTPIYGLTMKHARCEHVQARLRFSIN
Description: Cytochrome-P450 isoforms liability determination. The data set is classed as in vitro ADME. The method, then: (§4) To determine the test compound liability towards Human cytochrome 450 (hCYP450) Isoforms fluorescence based screening kits.
(§5) Brief procedure: 2× test compounds were prepared by dilution with deionized water. A serial dilution of the test compound was done. 2× solution of known inhibitor were used as a positive control. 40 μL of the 2× solution that is prepared was added to the desired wells. Two replicates were included for every compound. 50 μL of the Master premix (premix of CYP450 Baclosomes, reagents and regenerating system) was dispensed into each well. The plate was incubated for 20 min at room temperature to allow the compounds to interact with the CYP450enzymes. The reaction was started by adding 10 μL of the substrate and NADP^+ mixture. The plate was incubated for the desired amount of time, and then 10 μL of stop reagent was added to each well to quench the reaction. The fluorescence was measured in the fluorescent plate reader at excitation and emission wavelengths as recommended, depending on the substrate used.

The target in data set [6] is T2, CYP 2C19 (Homo sapiens, UniProt P33261).
T2 construct: purchased
Description: Cytochrome-P450 isoforms liability determination. The class given is in vitro ADME. The method, then:
as §4, §5

Data set [7] addresses T3, CYP 2C9 (Homo sapiens, UniProt P11712).
T3 construct: purchased
The experiment in a line: Cytochrome-P450 isoforms liability determination. The class given is in vitro ADME. The method, then:
as §4, §5

Data set [8] has as its target T4, CYP 2D6 (Homo sapiens, UniProt P10635).
T4 construct: purchased
Description: Cytochrome-P450 isoforms liability determination. The data set is classed as in vitro ADME. The method, then:
as §4, §5

Data set [9] relates to acetyl-Histone H3. Description: Histone hyperacetylation in Hela cells (Western Blot). The class given is cell-based. Also noted: key: represented by the symbol ‘+’ which indicates the relative extent of modulation; ++: represented by the symbol ‘+’ which indicates the relative extent of modulation; +++: represented by the symbol ‘+’ which indicates the relative extent of modulation; ++++: represented by the symbol ‘+’ which indicates the relative extent of modulation. The settings on record: 24 hrs, 0.03-3.0 μM. How it is done:
(§6) HeLa Cells were seeded at a density of 0.4×10^6 Cells/well into 6 well plates and incubated for 24 h The compounds were tested at 5 different concentrations (0.03, 0.1, 0.3, 1.0, 3.0 μM) with corresponding control. After 24 hrs cells were lysed and histone proteins were extracted as per established protocols and the extract was used for measuring H3 and H4 hyperacetylation by Western Blot using Anti-acetyl-Histone H3 and Anti-acetyl-Histone H4 (Millipore, USA) antibodies.
In general terms: Immunoblotting shows a protein as a band on a membrane.

For data set [10], the system named is acetyl-Histone H4. The description is as above. The settings on record: 24 hrs, 0.03-3.0 μM. Also noted: key: represented by the symbol ‘+’ which indicates the relative extent of modulation; ++: represented by the symbol ‘+’ which indicates the relative extent of modulation; +++: represented by the symbol ‘+’ which indicates the relative extent of modulation; ++++: represented by the symbol ‘+’ which indicates the relative extent of modulation. The data set is classed as cell-based. How it is done: as §6

Where [11] appears, read: A549, Table 1, MTT, 48 hours, read-out: Cell growth inhibition (GI50 in μM) A549.
Where [12] appears, read: A549, Table 9, Lung, read-out: Anti-proliferative activity (GI50) A549.
Where [13] appears, read: HT-29, Table 9, Colon, read-out: Anti-proliferative activity (GI50) HT-29.
[14] abbreviates: PC-3, Table 1, MTT, 48 hours, read-out: Cell growth inhibition (GI50 in μM) PC-3.
[15] abbreviates: PC-3, Table 9, Prostate, read-out: Anti-proliferative activity (GI50) PC-3.
Where [16] appears, read: fluorescence based kit, read-out: CYP liability (IC50 in μM) CYP 1A2.
The mark [17] stands for this setting: fluorescence based kit, read-out: CYP liability (IC50 in μM) CYP 2C19.
Where [18] appears, read: fluorescence based kit, read-out: CYP liability (IC50 in μM) CYP 2C9.
Where [19] appears, read: fluorescence based kit, read-out: CYP liability (IC50 in μM) CYP 2D6.
Where [20] appears, read: HT-29, Table 1, MTT, 48 hours, read-out: Cell growth inhibition (GI50 in μM) HT-29.

T4 sequence (P10635 whole entry): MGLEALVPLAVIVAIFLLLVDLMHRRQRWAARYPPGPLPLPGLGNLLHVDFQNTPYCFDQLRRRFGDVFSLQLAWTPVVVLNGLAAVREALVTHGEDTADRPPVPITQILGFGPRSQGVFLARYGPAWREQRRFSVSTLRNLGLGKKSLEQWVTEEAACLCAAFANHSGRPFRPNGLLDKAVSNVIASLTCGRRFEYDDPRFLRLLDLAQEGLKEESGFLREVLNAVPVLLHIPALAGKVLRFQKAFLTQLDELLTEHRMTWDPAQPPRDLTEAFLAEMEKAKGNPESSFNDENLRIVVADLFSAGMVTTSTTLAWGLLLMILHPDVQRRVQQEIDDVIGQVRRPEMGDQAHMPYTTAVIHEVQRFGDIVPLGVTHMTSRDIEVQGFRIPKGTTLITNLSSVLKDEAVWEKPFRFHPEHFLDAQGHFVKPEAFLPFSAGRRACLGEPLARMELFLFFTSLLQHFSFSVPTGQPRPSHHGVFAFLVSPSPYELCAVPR
T2 sequence (P33261 whole entry): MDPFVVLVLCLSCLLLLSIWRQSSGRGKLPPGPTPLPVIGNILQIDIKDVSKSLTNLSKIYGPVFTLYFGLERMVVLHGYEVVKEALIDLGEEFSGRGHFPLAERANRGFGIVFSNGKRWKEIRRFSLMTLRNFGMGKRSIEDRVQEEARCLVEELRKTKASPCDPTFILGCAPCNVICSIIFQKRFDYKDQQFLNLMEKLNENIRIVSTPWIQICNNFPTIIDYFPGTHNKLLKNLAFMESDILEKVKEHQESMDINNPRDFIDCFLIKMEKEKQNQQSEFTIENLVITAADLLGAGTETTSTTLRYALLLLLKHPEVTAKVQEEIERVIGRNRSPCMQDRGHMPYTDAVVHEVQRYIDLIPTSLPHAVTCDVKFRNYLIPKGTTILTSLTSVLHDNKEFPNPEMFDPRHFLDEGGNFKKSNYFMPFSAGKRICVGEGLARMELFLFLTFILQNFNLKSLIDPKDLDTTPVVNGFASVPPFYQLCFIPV
T3 sequence (P11712 whole entry): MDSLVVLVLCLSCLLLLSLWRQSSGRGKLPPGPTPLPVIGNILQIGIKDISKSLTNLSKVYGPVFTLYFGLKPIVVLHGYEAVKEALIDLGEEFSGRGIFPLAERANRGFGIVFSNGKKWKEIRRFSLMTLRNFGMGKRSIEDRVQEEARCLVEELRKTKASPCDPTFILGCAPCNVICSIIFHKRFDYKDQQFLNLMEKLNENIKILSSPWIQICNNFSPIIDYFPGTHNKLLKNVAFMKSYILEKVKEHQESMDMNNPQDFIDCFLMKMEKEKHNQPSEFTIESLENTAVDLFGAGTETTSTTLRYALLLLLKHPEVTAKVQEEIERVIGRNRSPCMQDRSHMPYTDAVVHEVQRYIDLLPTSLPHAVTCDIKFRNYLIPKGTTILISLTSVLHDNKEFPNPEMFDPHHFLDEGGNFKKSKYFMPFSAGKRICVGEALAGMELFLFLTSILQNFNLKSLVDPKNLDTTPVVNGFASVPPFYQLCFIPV

Regarding `O=C(NO)c1ccc(Cn2cc(-c3ccc(CN4CCOCC4)cc3)nn2)cc1` [Example 9, N-Hydroxy-4-[4-(4-morpholin-4-ylmethyl-phenyl)-[1,2,3]triazol-1-ylmethyl]-benzamide], the GI50 in data set [1] (setting [11]) came out at 5 ± 1.6 µM; in data set [1] (setting [12]) it was 4.5 ± 2.33 µM; in [2] (setting [13]), 1.5 ± 0.65 µM; in data set [3] (setting [14]), 22 ± 5.4 µM; in [3] (setting [15]), 13.4 ± 3.3 µM. In addition, the “% Stable compounds after 1 hr incubation” value in [4] is recorded as 100%. Moreover, the IC50 in data set [5] (setting [16]), in data set [6] (setting [17]), in data set [7] (setting [18]) and in [8] (setting [19]) was > 60 µM throughout. Further, the “Target modulation: H3 acetylation” value in data set [9] was “++++”. Further, the “Target modulation: H4 acetylation” value in data set [10] is on record as “++++”.

In the case of `CN(C)Cc1ccc(-c2cn(Cc3ccc(/C=C/C(=O)NO)cc3)nn2)cc1` [Example 21], the GI50 in data set [1] (setting [11]) is 2.2 ± 2.3 µM; in [1] (setting [12]), 2.2 ± 2.22 µM; in data set [2] (setting [13]), 2.1 ± 0.46 µM; in data set [3] (setting [14]), 11.3 ± 8.3 µM; in [3] (setting [15]) it was 4.8 ± 1.4 µM. In addition, in [4], the “% Stable compounds after 1 hr incubation” value is 65%. Also, the IC50 in [5] (setting [16]), in data set [6] (setting [17]), in data set [7] (setting [18]) and in [8] (setting [19]) was > 60 µM each time. For the same molecule, in data set [9], the “Target modulation: H3 acetylation” value was “+++”. For the same molecule, the “Target modulation: H4 acetylation” value in data set [10] was “++++”.

As for `O=C(/C=C/c1ccc(Cn2cc(-c3ccc(CN4CCCC4)cc3)nn2)cc1)NO` [Example 16, N-Hydroxy-3-{4-[4-(4-pyrrolidin-1-ylmethyl-phenyl)-[1,2,3]triazol-1-ylmethyl]-phenyl}-acrylamide], the GI50 in data set [1] (setting [11]) worked out at 1.7 ± 1 µM; in data set [1] (setting [12]) it was 1.58 ± 1.1 µM; in data set [2] (setting [20]), 0.04 µM; in data set [2] (setting [13]), 0.15 ± 0.13 µM; in data set [3] (setting [14]), 12.6 ± 7.6 µM; in data set [3] (setting [15]), 3.5 ± 2.7 µM. Further, the “% Stable compounds after 1 hr incubation” value in data set [4] is on record as 98%. Moreover, the IC50 is > 60 µM in [5] (setting [16]), > 60 µM in data set [6] (setting [17]), > 60 µM in data set [7] (setting [18]) and 13.2 µM in data set [8] (setting [19]). Moreover, the “Target modulation: H3 acetylation” value in data set [9] was “++”. Also, in data set [10], the “Target modulation: H4 acetylation” value is on record as “++++”.

As to `O=C(NO)c1ccc(Cn2cc(-c3ccc(CN4CCCC4)cc3)nn2)cc1` [Example 8, N-Hydroxy-4-[4-(4-pyrrolidin-1-ylmethyl-phenyl)-[1,2,3]triazol-1-ylmethyl]-benzamide], the GI50 in data set [1] (setting [11]) was 4.1 ± 0.6 µM; in [1] (setting [12]), 3.1 ± 1.99 µM; in data set [2] (setting [20]), 0.2 µM; in [2] (setting [13]), 1.3 ± 0.33 µM; in data set [3] (setting [14]), 16.8 ± 8.8 µM; in [3] (setting [15]), 4.1 ± 0.38 µM. Also, the “% Stable compounds after 1 hr incubation” value in data set [4] is 100%. In addition, the IC50 in [5] (setting [16]) was > 60 µM; in data set [6] (setting [17]), > 60 µM; in [7] (setting [18]), > 60 µM; in data set [8] (setting [19]), 26 µM. For the same molecule, in [9], the “Target modulation: H3 acetylation” value is reported as “+++”. The “Target modulation: H4 acetylation” value in [10] was “++++”.

Take `O=C(/C=C/c1cccc(Cn2cc(-c3ccc(CN4CCOCC4)cc3)nn2)c1)NO` [Example 25, N-Hydroxy-3-{3-[4-(4-morpholin-4-ylmethyl-phenyl)-[1,2,3]triazol-1-ylmethyl]-phenyl}-acrylamide hydrochloride]: the GI50 in [1] (setting [11]) amounted to 2.5 ± 0.8 µM; in [1] (setting [12]), 2 ± 1.52 µM; in [2] (setting [20]) it was 0.2 µM; in [2] (setting [13]) it was 0.4 ± 0.13 µM; in [3] (setting [14]) it was 4 ± 3.9 µM; in data set [3] (setting [15]), 1.7 ± 1.02 µM. Further, the “% Stable compounds after 1 hr incubation” value in [4] is 57%. Also, the IC50 was > 60 µM in [5] (setting [16]), > 60 µM in data set [6] (setting [17]), 51.5 µM in data set [7] (setting [18]) and > 60 µM in data set [8] (setting [19]). In addition, in [9], the “Target modulation: H3 acetylation” value is reported as “++++”. For the same molecule, the “Target modulation: H4 acetylation” value in [10] was “++++”.

As for `O=C(CCCCCCC(=O)Nc1ccccc1)NO` [SAHA, Suberoylanilide Hydroxamic Acid, reference compound], the GI50 in data set [1] (A549, read-out: Anti-proliferative activity (GI50) A549) was 5.9 ± 2.4 µM; in [2] (HT-29, read-out: Anti-proliferative activity (GI50) HT-29), 3.6 ± 2.6 µM; in data set [3] (PC-3, read-out: Anti-proliferative activity (GI50) PC-3), 8.3 ± 0.6 µM. Also, in data set [4], the “% Stable compounds after 1 hr incubation” value came to 67%. For the same molecule, the IC50 in data set [5] came to 9.7 µM; in [6] it was 2.9 µM; in [7] it was 29.7 µM; in [8], 3.6 µM. In addition, the “Target modulation: H3 acetylation” value in data set [9] is “+++”. Besides, the “Target modulation: H4 acetylation” value in data set [10] is “+++”.

For orientation: GI50 means the concentration that inhibits growth by half. By IC50 is commonly meant the concentration at which inhibition is half-maximal.
